Measured values published in ChEMBL document CHEMBL3046133, “Susceptibility of field populations of Spodoptera litura (Fabricius) (Lepidoptera: Noctuidae) in China to chlorantraniliprole and the activities of detoxification enzymes” (2012).

Key:
Type in all cases: functional
Spodoptera litura [1] = test: Resistance factor, ratio of LC50 for second to fifth-instar larval stage of Spodoptera litura field strain DG10 to LC50 for larval stage of Spodoptera litura laboratory strain XW-Sus
Spodoptera litura [2] = test: Resistance factor, ratio of LC50 for second to fifth-instar larval stage of Spodoptera litura field strain HZ10 to LC50 for larval stage of Spodoptera litura laboratory strain XW-Sus
Spodoptera litura [3] = test: Resistance factor, ratio of LC50 for second to fifth-instar larval stage of Spodoptera litura field strain SZ10 to LC50 for larval stage of Spodoptera litura laboratory strain XW-Sus
Spodoptera litura [4] = test: Resistance factor, ratio of LC50 for second to fifth-instar larval stage of Spodoptera litura field strain ZZ10 to LC50 for larval stage of Spodoptera litura laboratory strain XW-Sus
Spodoptera litura [5] = test: Resistance factor, ratio of LC50 for third to fifth-instar larval stage of Spodoptera litura field strain HX09 to LC50 for larval stage of Spodoptera litura laboratory strain XW-Sus
Spodoptera litura [6] = test: Resistance factor, ratio of LC50 for third to fifth-instar larval stage of Spodoptera litura field strain HF10 to LC50 for larval stage of Spodoptera litura laboratory strain XW-Sus
Spodoptera litura [7] = test: Resistance factor, ratio of LC50 for third to fifth-instar larval stage of Spodoptera litura field strain HF08 to LC50 for larval stage of Spodoptera litura laboratory strain XW-Sus
Spodoptera litura [8] = test: Resistance factor, ratio of LC50 for third to fifth-instar larval stage of Spodoptera litura field strain SH10 to LC50 for larval stage of Spodoptera litura laboratory strain XW-Sus
Spodoptera litura [9] = test: Resistance factor, ratio of LC50 for third to fifth-instar larval stage of Spodoptera litura field strain NJ10 to LC50 for larval stage of Spodoptera litura laboratory strain XW-Sus
Spodoptera litura [10] = test: Resistance factor, ratio of LC50 for third to fifth-instar larval stage of Spodoptera litura field strain NJ09 to LC50 for larval stage of Spodoptera litura laboratory strain XW-Sus
Spodoptera litura [11] = test: Resistance factor, ratio of LC50 for third to fifth-instar larval stage of Spodoptera litura field strain NN10 to LC50 for larval stage of Spodoptera litura laboratory strain XW-Sus
Spodoptera litura [12] = test: Resistance factor, ratio of LC50 for third to fifth-instar larval stage of Spodoptera litura field strain HH09 to LC50 for larval stage of Spodoptera litura laboratory strain XW-Sus
Spodoptera litura [13] = test: Insecticidal activity against second to fifth-instar larval stage of Spodoptera litura field strain DG10 assessed as mortality after 72 hr by diet incorporation bioassay
Spodoptera litura [14] = test: Insecticidal activity against second to fifth-instar larval stage of Spodoptera litura field strain HZ10 assessed as mortality after 72 hr by diet incorporation bioassay
Spodoptera litura [15] = test: Insecticidal activity against second to fifth-instar larval stage of Spodoptera litura field strain SZ10 assessed as mortality after 72 hr by diet incorporation bioassay
Spodoptera litura [16] = test: Insecticidal activity against second to fifth-instar larval stage of Spodoptera litura field strain ZZ10 assessed as mortality after 72 hr by diet incorporation bioassay
Spodoptera litura [17] = test: Insecticidal activity against third to fifth-instar larval stage of Spodoptera litura field strain HX09 assessed as mortality after 72 hr by diet incorporation bioassay
Spodoptera litura [18] = test: Insecticidal activity against third to fifth-instar larval stage of Spodoptera litura field strain HF10 assessed as mortality after 72 hr by diet incorporation bioassay
Spodoptera litura [19] = test: Insecticidal activity against third to fifth-instar larval stage of Spodoptera litura field strain HF08 assessed as mortality after 72 hr by diet incorporation bioassay
Spodoptera litura [20] = test: Insecticidal activity against third to fifth-instar larval stage of Spodoptera litura field strain SH10 assessed as mortality after 72 hr by diet incorporation bioassay
Spodoptera litura [21] = test: Insecticidal activity against third to fifth-instar larval stage of Spodoptera litura field strain NJ10 assessed as mortality after 72 hr by diet incorporation bioassay
Spodoptera litura [22] = test: Insecticidal activity against third to fifth-instar larval stage of Spodoptera litura field strain NJ09 assessed as mortality after 72 hr by diet incorporation bioassay
Spodoptera litura [23] = test: Insecticidal activity against third to fifth-instar larval stage of Spodoptera litura field strain NN10 assessed as mortality after 72 hr by diet incorporation bioassay
Spodoptera litura [24] = test: Insecticidal activity against third to fifth-instar larval stage of Spodoptera litura field strain HH09 assessed as mortality after 72 hr by diet incorporation bioassay
Spodoptera litura [25] = test: Insecticidal activity against larval stage of Spodoptera litura laboratory strain XW-Sus assessed as mortality after 72 hr by diet incorporation bioassay

Q: Which RatioLC50 (Spodoptera litura [1]) does the source give for `CNC(=O)c1cc(Cl)cc(C)c1NC(=O)c1cc(Br)nn1-c1ncccc1Cl` [CHLORANTRANILIPROLE] here?
A: 23.3

Q: And the RatioLC50 (Spodoptera litura [2])?
A: 19.2

Q: What about the RatioLC50 (Spodoptera litura [3]) of the same molecule?
A: 24.4

Q: And the RatioLC50 (Spodoptera litura [4])?
A: 18.9

Q: And the RatioLC50 (Spodoptera litura [5])?
A: 23.8

Q: And the RatioLC50 (Spodoptera litura [6])?
A: 17.9

Q: What about the RatioLC50 (Spodoptera litura [7]) of the same molecule?
A: 16.9

Q: And the RatioLC50 (Spodoptera litura [8])?
A: 11.2

Q: What about the RatioLC50 (Spodoptera litura [9]) of the same molecule?
A: 9

Q: What about the RatioLC50 (Spodoptera litura [10]) of the same molecule?
A: 6.8

Q: What about the RatioLC50 (Spodoptera litura [11]) of the same molecule?
A: 7.8

Q: And the RatioLC50 (Spodoptera litura [12])?
A: 9.4

Q: What about the LC50 (Spodoptera litura [13]) of the same molecule?
A: 98.81 ugAi/L

Q: What about the LC90 (Spodoptera litura [13]) of the same molecule?
A: 358.16 ugAi/L

Q: What about the LC50 (Spodoptera litura [14]) of the same molecule?
A: 80.41 ugAi/L

Q: And the LC90 (Spodoptera litura [14])?
A: 296.76 ugAi/L

Q: What about the LC50 (Spodoptera litura [15]) of the same molecule?
A: 102.48 ugAi/L

Q: And the LC90 (Spodoptera litura [15])?
A: 354.52 ugAi/L

Q: What about the LC50 (Spodoptera litura [16]) of the same molecule?
A: 78.89 ugAi/L

Q: And the LC90 (Spodoptera litura [16])?
A: 269.74 ugAi/L

Q: And the LC50 (Spodoptera litura [17])?
A: 100.3 ugAi/L

Q: What about the LC90 (Spodoptera litura [17]) of the same molecule?
A: 431.76 ugAi/L

Q: And the LC50 (Spodoptera litura [18])?
A: 75.51 ugAi/L

Q: And the LC90 (Spodoptera litura [18])?
A: 262.61 ugAi/L

Q: What about the LC50 (Spodoptera litura [19]) of the same molecule?
A: 71.58 ugAi/L

Q: What about the LC90 (Spodoptera litura [19]) of the same molecule?
A: 386.57 ugAi/L

Q: What about the LC50 (Spodoptera litura [20]) of the same molecule?
A: 47.17 ugAi/L

Q: What about the LC90 (Spodoptera litura [20]) of the same molecule?
A: 133.09 ugAi/L

Q: And the LC50 (Spodoptera litura [21])?
A: 37.78 ugAi/L

Q: What about the LC90 (Spodoptera litura [21]) of the same molecule?
A: 156.29 ugAi/L

Q: And the LC50 (Spodoptera litura [22])?
A: 28.41 ugAi/L

Q: And the LC90 (Spodoptera litura [22])?
A: 108.24 ugAi/L

Q: And the LC50 (Spodoptera litura [23])?
A: 32.85 ugAi/L

Q: And the LC90 (Spodoptera litura [23])?
A: 81.75 ugAi/L

Q: What about the LC50 (Spodoptera litura [24]) of the same molecule?
A: 39.54 ugAi/L

Q: What about the LC90 (Spodoptera litura [24]) of the same molecule?
A: 132.55 ugAi/L

Q: And the LC50 (Spodoptera litura [25])?
A: 4.2 ugAi/L

Q: What about the LC90 (Spodoptera litura [25]) of the same molecule?
A: 17.82 ugAi/L
